Results taken from PubChem BioAssay AID1963974 (Molecular Pharmacology Branch, DTP, NCI, 2024).

System: 648629-189-R-J1-PDC spheroids with HUVEC/MSC, viability
Assay: Anticancer human tumor 648629-189-R-J1-PDC patient-derived bladder carcinoma cell line growth inhibition [PI3K]
Conditions: for IC50: curve of first compound; for viability, T/C: stronger effect = lower value; active means viability on the fitted dose curve at most 10% of control; inactive means the rest
Summary of the method: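 Multi-cell spheroids combine tumor cells with HUVEC and human MSCs, treated with targeted agents alone or with inavolisib, alpelisib, duvelisib or copanlisib. Concentrations fall in half-log steps from at or near clinical Cmax, or from 10 microM where Cmax is unknown; viability read-out.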

[1] = second compound 0.0316 µM, first compound 0.0316 µM
[2] = second compound 0.0316 µM, first compound 0.1 µM
[3] = second compound 0.0316 µM, first compound 0.316 µM
[4] = second compound 0.0316 µM, first compound 1 µM
[5] = second compound 0.0316 µM, first compound 3.16 µM
[6] = second compound 0.0316 µM, first compound 10 µM
[7] = second compound 0.1 µM, first compound 0.0316 µM
[8] = second compound 0.1 µM, first compound 0.1 µM
[9] = second compound 0.1 µM, first compound 0.316 µM
[10] = second compound 0.1 µM, first compound 1 µM
[11] = second compound 0.1 µM, first compound 3.16 µM
[12] = second compound 0.1 µM, first compound 10 µM
[13] = second compound 0.316 µM, first compound 0.0316 µM
[14] = second compound 0.316 µM, first compound 0.1 µM
[15] = second compound 0.316 µM, first compound 0.316 µM
[16] = second compound 0.316 µM, first compound 1 µM
[17] = second compound 0.316 µM, first compound 3.16 µM
[18] = second compound 0.316 µM, first compound 10 µM
[19] = second compound 1 µM, first compound 0.0316 µM
[20] = second compound 1 µM, first compound 0.1 µM
[21] = second compound 1 µM, first compound 0.316 µM
[22] = second compound 1 µM, first compound 1 µM
[23] = second compound 1 µM, first compound 3.16 µM
[24] = second compound 1 µM, first compound 10 µM
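Further: spheroids exposed to agents for seven days before reading.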
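Wherever viability, T/C is given: percent of vehicle control luminescence where 100% = DMSO treated spheroids.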

Cn1cnc2c(F)c(Nc3ccc(Br)cc3Cl)c(C(=O)NOCCO)cc21 + CC(Nc1ncnc2nc[nH]c12)c1cc2cccc(Cl)c2c(=O)n1-c1ccccc1
inactive: viability, T/C (second compound 0.0316 µM, first compound 0.00949 µM) 101% | viability, T/C (second compound 0.0316 µM, first compound 0.03 µM) 86.2% | viability, T/C (second compound 0.0316 µM, first compound 0.0949 µM) 84% | viability, T/C (second compound 0.0316 µM, first compound 0.3 µM) 101% | viability, T/C (second compound 0.0316 µM, first compound 0.949 µM) 93.6% | viability, T/C (second compound 0.0316 µM, first compound 3 µM) 81.6% | viability, T/C (second compound 0.1 µM, first compound 0.00949 µM) 97.1% | viability, T/C (second compound 0.1 µM, first compound 0.03 µM) 93.6% | viability, T/C (second compound 0.1 µM, first compound 0.0949 µM) 102% | viability, T/C (second compound 0.1 µM, first compound 0.3 µM) 95.5% | viability, T/C (second compound 0.1 µM, first compound 0.949 µM) 107% | viability, T/C (second compound 0.1 µM, first compound 3 µM) 90.1% | viability, T/C (second compound 0.316 µM, first compound 0.00949 µM) 95.8% | viability, T/C (second compound 0.316 µM, first compound 0.03 µM) 101% | viability, T/C (second compound 0.316 µM, first compound 0.0949 µM) 94% | viability, T/C (second compound 0.316 µM, first compound 0.3 µM) 114% | viability, T/C (second compound 0.316 µM, first compound 0.949 µM) 105% | viability, T/C (second compound 0.316 µM, first compound 3 µM) 79.2% | viability, T/C (second compound 1 µM, first compound 0.00949 µM) 105% | viability, T/C (second compound 1 µM, first compound 0.03 µM) 100% | viability, T/C (second compound 1 µM, first compound 0.0949 µM) 94.9% | viability, T/C (second compound 1 µM, first compound 0.3 µM) 98.9% | viability, T/C (second compound 1 µM, first compound 0.949 µM) 88.3% | viability, T/C (second compound 1 µM, first compound 3 µM) 88.2% | viability, T/C (second compound 3.16 µM, first compound 0.00949 µM) 103% | viability, T/C (second compound 3.16 µM, first compound 0.03 µM) 101% | viability, T/C (second compound 3.16 µM, first compound 0.0949 µM) 94.2% | viability, T/C (second compound 3.16 µM, first compound 0.3 µM) 108% | viability, T/C (second compound 3.16 µM, first compound 0.949 µM) 89.2% | viability, T/C (second compound 3.16 µM, first compound 3 µM) 84.4% | viability, T/C (second compound 10 µM, first compound 0.00949 µM) 93.2% | viability, T/C (second compound 10 µM, first compound 0.03 µM) 80.3% | viability, T/C (second compound 10 µM, first compound 0.0949 µM) 92.1% | viability, T/C (second compound 10 µM, first compound 0.3 µM) 92.8% | viability, T/C (second compound 10 µM, first compound 0.949 µM) 79% | viability, T/C (second compound 10 µM, first compound 3 µM) 68.6%
> 3 µM: IC50 (second compound 0.0316 µM) | IC50 (second compound 0.1 µM) | IC50 (second compound 0.316 µM) | IC50 (second compound 1 µM) | IC50 (second compound 3.16 µM) | IC50 (second compound 10 µM)

CC1(C)CCC(Nc2ncc(C(F)(F)F)c(-c3c[nH]c4c(P(C)(C)=O)c(C#N)ccc34)n2)CN1 (stereo unspecified) + Cc1nc(NC(=O)N2CCCC2C(N)=O)sc1-c1ccnc(C(C)(C)C(F)(F)F)c1
inactive: viability, T/C [1] 29.4% | viability, T/C [2] 27.6% | viability, T/C [3] 25.6% | viability, T/C [4] 33.7% | viability, T/C [5] 40.7% | viability, T/C [6] 5.12% | viability, T/C [7] 24.7% | viability, T/C [8] 27.4% | viability, T/C [9] 29.3% | viability, T/C [10] 38.2% | viability, T/C [11] 40.9% | viability, T/C [12] 4.14% | viability, T/C [13] 27.6% | viability, T/C [14] 24.7% | viability, T/C [15] 30.5% | viability, T/C [16] 27.9% | viability, T/C [17] 36.4% | viability, T/C [18] 4.18% | viability, T/C [19] 26.8% | viability, T/C [20] 23.9% | viability, T/C [21] 26% | viability, T/C [22] 27.4% | viability, T/C [23] 27.4% | viability, T/C [24] 2.87% | viability, T/C (second compound 3.16 µM, first compound 0.0316 µM) 26% | viability, T/C (second compound 3.16 µM, first compound 0.1 µM) 23.1% | viability, T/C (second compound 3.16 µM, first compound 0.316 µM) 21% | viability, T/C (second compound 3.16 µM, first compound 1 µM) 22.2% | viability, T/C (second compound 3.16 µM, first compound 3.16 µM) 24.7% | viability, T/C (second compound 3.16 µM, first compound 10 µM) 1.62% | viability, T/C (second compound 10 µM, first compound 0.0316 µM) 21.5% | viability, T/C (second compound 10 µM, first compound 0.1 µM) 17.1% | viability, T/C (second compound 10 µM, first compound 0.316 µM) 18.1% | viability, T/C (second compound 10 µM, first compound 1 µM) 16.6% | viability, T/C (second compound 10 µM, first compound 3.16 µM) 15.5%
active: viability, T/C (second compound 10 µM, first compound 10 µM) 0.41%
< 0.0316 µM: IC50 (second compound 0.0316 µM) | IC50 (second compound 0.1 µM) | IC50 (second compound 0.316 µM) | IC50 (second compound 1 µM) | IC50 (second compound 3.16 µM) | IC50 (second compound 10 µM)

CC(Cn1ccc(-c2ccc(C#N)c(Cl)c2)n1)NC(=O)c1cc(C(C)O)[nH]n1 (stereo unspecified) + CC(Nc1ccc2c(c1)OCCn1cc(N3C(=O)OCC3C(F)F)nc1-2)C(N)=O
> 10 µM: IC50 (second compound 0.00316 µM) | IC50 (second compound 0.01 µM) | IC50 (second compound 0.0316 µM) | IC50 (second compound 0.1 µM) | IC50 (second compound 0.316 µM) | IC50 (second compound 1 µM)
inactive: viability, T/C (second compound 0.00316 µM, first compound 0.0316 µM) 99.9% | viability, T/C (second compound 0.00316 µM, first compound 0.1 µM) 97.1% | viability, T/C (second compound 0.00316 µM, first compound 0.316 µM) 92.5% | viability, T/C (second compound 0.00316 µM, first compound 1 µM) 90.1% | viability, T/C (second compound 0.00316 µM, first compound 3.16 µM) 85.7% | viability, T/C (second compound 0.00316 µM, first compound 10 µM) 68.3% | viability, T/C (second compound 0.01 µM, first compound 0.0316 µM) 92.7% | viability, T/C (second compound 0.01 µM, first compound 0.1 µM) 97.2% | viability, T/C (second compound 0.01 µM, first compound 0.316 µM) 92.9% | viability, T/C (second compound 0.01 µM, first compound 1 µM) 88.3% | viability, T/C (second compound 0.01 µM, first compound 3.16 µM) 89.9% | viability, T/C (second compound 0.01 µM, first compound 10 µM) 70.4% | viability, T/C [1] 97.2% | viability, T/C [2] 98.7% | viability, T/C [3] 95.2% | viability, T/C [4] 83.5% | viability, T/C [5] 83.8% | viability, T/C [6] 75.5% | viability, T/C [7] 106% | viability, T/C [8] 86.9% | viability, T/C [9] 85.8% | viability, T/C [10] 86.2% | viability, T/C [11] 84.5% | viability, T/C [12] 72% | viability, T/C [13] 83.8% | viability, T/C [14] 87.5% | viability, T/C [15] 78.1% | viability, T/C [16] 94.2% | viability, T/C [17] 72.8% | viability, T/C [18] 58.2% | viability, T/C [19] 73.2% | viability, T/C [20] 71.6% | viability, T/C [21] 61.5% | viability, T/C [22] 67.6% | viability, T/C [23] 60% | viability, T/C [24] 57.9%
